The record followed here is patent US12037344B2, “NLRP3 modulators” (INNATE TUMOR IMMUNITY, INC., priority 2018, dated 2024).

The subject of experiment [1] is THP-1 cells. The experiment in a line: Measurement of IL-1β production, hTRF protocol (second alternative procedure), THP-1 cells. The class given is cell-based, human. To be noted: Homo sapiens, THP-1, IL-1β production, human; read-out: NLRP3 hILIB EC50. As for the experimental part: Measurement of IL-1β Production—hTRF Protocol (Second Alternative Procedure)
Serial dilutions of compounds in DMSO were added to low volume 384 well plates at 100 nl/well using an ECHO 550 acoustic dispenser (Labcyte) to achieve final starting concentration of 10 μM in assay.
THP-1 cells in RPMI (Gibco, 11875) media with 10% FBS at a density of 1×10^6 cell/ml in a T175 flask were treated with a final concentration of phorbol 12-myristate 13-acetate (PMA) (Sigma, P1585) of 50 ng/ml overnight at 37° C. at 5% CO2 for differentiation. Cells were harvested the next day after rinsing well with dPBS using 0.5% trypsin. A cell solution was prepared of 1×10^6 cells/ml for 50,000 cells in 50 μl/well in RPMI media with 2% FBS. Cells were plated using a multichannel pipette onto the compound dilutions in Greiner, 384 well, black clear bottom tissue culture treated plates (781090). The plates were incubated in 37° C. incubator at 5% CO2 for 2 hours.
After the 2 hour incubation, the cell plates were spun in the centrifuge for 5 minutes at 1200 rpm. Using the Felix (CyBio), 8 μl of the supernatant was transferred to 384 well, low volume, white proxy plates. (Perkin Elmer, 6008230). A human IL1beta hTRF kit was used to analyze the supernatant (CISBIO, 62HIL1BPEG). The kit instructions were followed for preparing the IL1Beta standard curve and then the antibodies from the kit were diluted 1:40 rather than 1:20 as kit instructed. Once combined, the antibodies were added across the plates, 5 μl/well. The plates were sealed and incubated at 4° C. overnight. The plates were then read on the Perkin Elmer EnVision at 665/615 nm using the hTRF laser.

Experiment [2] addresses T1, TLR7 (Homo sapiens, UniProt Q9NYK1).
T1 construct: human HEK-Blue cells co-expressing a TLR7 or TLR8 gene
T1 sequence (Q9NYK1 27-1049): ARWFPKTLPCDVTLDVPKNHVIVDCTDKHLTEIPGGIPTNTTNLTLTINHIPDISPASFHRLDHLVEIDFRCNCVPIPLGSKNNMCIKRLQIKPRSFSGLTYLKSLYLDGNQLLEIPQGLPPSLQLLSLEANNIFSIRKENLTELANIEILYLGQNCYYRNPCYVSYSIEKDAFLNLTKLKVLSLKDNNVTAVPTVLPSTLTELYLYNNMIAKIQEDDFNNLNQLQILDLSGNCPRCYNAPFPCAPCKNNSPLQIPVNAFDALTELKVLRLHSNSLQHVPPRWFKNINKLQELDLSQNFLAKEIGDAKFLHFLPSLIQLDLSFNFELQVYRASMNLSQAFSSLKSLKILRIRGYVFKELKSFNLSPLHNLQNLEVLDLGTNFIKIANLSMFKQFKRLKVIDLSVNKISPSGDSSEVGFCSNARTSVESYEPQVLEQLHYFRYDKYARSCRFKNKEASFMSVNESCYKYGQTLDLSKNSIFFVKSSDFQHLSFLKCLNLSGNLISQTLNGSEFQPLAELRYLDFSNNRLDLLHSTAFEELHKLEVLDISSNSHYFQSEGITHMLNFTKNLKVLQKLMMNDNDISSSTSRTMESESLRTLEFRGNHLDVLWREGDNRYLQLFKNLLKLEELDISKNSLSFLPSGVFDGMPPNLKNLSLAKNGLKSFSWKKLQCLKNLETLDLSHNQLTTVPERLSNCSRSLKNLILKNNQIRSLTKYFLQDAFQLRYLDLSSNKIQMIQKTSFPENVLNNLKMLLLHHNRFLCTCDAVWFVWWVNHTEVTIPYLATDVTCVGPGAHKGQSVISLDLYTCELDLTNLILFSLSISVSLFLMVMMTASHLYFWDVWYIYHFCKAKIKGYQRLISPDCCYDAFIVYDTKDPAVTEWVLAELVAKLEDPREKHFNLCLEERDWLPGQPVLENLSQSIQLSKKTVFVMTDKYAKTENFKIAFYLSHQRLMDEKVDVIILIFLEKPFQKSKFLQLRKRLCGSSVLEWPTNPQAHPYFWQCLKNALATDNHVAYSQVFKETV
Nature of the experiment: In vitro human TLR7 binding reporter assay (HEK-Blue, NF-kB/AP1-inducible SEAP). The class given is cell-based. To be noted: activity range class, read-out: TLR7 Agonist EC50. On the procedure: (§1) In Vitro Human TLR7 and TLR8 Binding Reporter Assays
(§2) Logarithmically-growing human HEK-Blue cells co-expressing a TLR7 or TLR8 gene and a NF-kB/AP1-inducible SEAP (secreted embryonic alkaline phosphatase; Invivogen, San Diego, CA) reporter gene are added to individual wells of a 384-well plate (15,000 cells per 20 μL per well) and maintained for 24 h at 37° C., 5% CO2. Test compounds or DMSO are distributed to separate wells the next day using acoustic liquid handling technology (100 nL per well) and cells are subsequently incubated for 18 h at 37° C., 5% CO2. Cellular SEAP production is measured using an Envision plate reader instrument thirty minutes after adding freshly-made Quanti-Blue reagent (prepared by following manufacturer instructions; Invivogen, San Diego, CA) to the HEK-Blue TLR Nf-kB-SEAP cell reactions. All EC50 values (half-maximal effective concentration) are determined using proprietary data analysis software. Normalized EC50 value=absolute value determined by setting 100% Ymax using a reference standard RLU (relative light unit) values from cells treated with 50 μM of the reference standard.

Experiment [3] has as its target T2, TLR8 (Homo sapiens, UniProt Q9NR97).
T2 construct: human HEK-Blue cells co-expressing a TLR7 or TLR8 gene
T2 sequence (Q9NR97 27-1041): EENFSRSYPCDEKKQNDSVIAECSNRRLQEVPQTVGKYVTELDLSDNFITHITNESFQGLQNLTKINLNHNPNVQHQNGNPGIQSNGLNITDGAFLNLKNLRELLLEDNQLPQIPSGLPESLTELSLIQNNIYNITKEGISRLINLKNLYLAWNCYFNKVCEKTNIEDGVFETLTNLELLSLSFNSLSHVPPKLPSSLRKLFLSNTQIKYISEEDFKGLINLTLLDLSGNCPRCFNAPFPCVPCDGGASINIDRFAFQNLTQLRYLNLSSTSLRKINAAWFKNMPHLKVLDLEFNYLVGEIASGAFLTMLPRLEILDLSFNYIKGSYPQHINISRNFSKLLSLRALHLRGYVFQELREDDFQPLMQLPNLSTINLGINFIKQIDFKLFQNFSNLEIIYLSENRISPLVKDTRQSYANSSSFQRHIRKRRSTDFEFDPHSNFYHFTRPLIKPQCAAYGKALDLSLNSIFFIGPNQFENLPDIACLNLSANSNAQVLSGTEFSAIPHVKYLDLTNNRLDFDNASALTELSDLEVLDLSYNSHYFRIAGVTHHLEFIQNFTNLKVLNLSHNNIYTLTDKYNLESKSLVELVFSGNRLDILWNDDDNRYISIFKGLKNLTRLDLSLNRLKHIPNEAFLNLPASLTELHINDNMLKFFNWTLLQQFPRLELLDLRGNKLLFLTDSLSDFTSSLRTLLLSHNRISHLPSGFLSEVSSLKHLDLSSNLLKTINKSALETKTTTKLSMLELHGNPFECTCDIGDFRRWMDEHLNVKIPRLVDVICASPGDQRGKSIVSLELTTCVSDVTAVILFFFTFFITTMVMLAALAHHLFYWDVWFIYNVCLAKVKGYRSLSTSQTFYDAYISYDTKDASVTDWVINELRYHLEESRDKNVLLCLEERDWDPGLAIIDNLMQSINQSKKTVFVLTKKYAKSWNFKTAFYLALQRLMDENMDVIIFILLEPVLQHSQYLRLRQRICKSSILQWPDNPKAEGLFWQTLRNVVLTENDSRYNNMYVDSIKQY
Nature of the experiment: In vitro human TLR8 binding reporter assay (HEK-Blue, NF-kB/AP1-inducible SEAP). To be noted: activity range class, read-out: TLR8 Agonist EC50. It is filed as cell-based. As for the experimental part:
as §1, §2
A general note: In a reporter assay the amount or activity of a reporter protein is the signal.

Usually EC50 stands for the concentration needed to bring the measured effect to its halfway point. On to `Nc1nc2cc(-c3cc[nH]n3)ccc2c2cn(CCCOc3ccccn3)nc12` [Example 3, 7-(1H-pyrazol-3-yl)-2-[3-(pyridin-2-yloxy)propyl]-2H-pyrazolo[3,4-c]quinolin-4-amine], for which the results for the EC50 in experiment [1], in experiment [2] and in experiment [3] were 0.56 µM, more than 100 µM and more than 100 µM, respectively.
As for `Nc1nc2cc(-c3cc[nH]n3)ccc2c2cn(CCCn3ccccc3=O)nc12` [Example 4, 1-{3-[4-amino-7-(1H-pyrazol-3-yl)-2H-pyrazolo[3,4-c]quinolin-2-yl]propyl}-1,2-dihydropyridin-2-one], the EC50 in experiment [1] was 16.8 µM; in experiment [2] it was more than 100 µM; in experiment [3], more than 100 µM.
Regarding `Nc1nc2cc(-c3cc[nH]n3)ccc2c2cn(CCCOc3cccc(F)c3)nc12` [Example 5], the values for the EC50 in experiment [1], in experiment [2] and in experiment [3] were 0.35 µM, more than 100 µM and more than 100 µM, respectively.
On to `Nc1nc2cc(-c3cc[nH]n3)ccc2c2cn(CCCOc3ccc(F)cc3)nc12` [Example 6], for which the EC50 in experiment [1] was 0.56 µM; in experiment [2], more than 100 µM; in experiment [3], more than 100 µM.
As to `Nc1nc2cc(-c3cc[nH]n3)ccc2c2cn(CCCOc3ccccc3F)nc12` [Example 7], the EC50 in experiment [1] is 0.42 µM; in experiment [2] it was more than 100 µM; in experiment [3], more than 100 µM.
For `Cc1cccc(OCCCn2cc3c(n2)c(N)nc2cc(-c4cc[nH]n4)ccc23)c1` [Example 8], the EC50 in experiment [1] was 0.89 µM; in experiment [2], more than 100 µM; in experiment [3], more than 100 µM.
In the case of `Nc1nc2cc(-c3cc[nH]n3)ccc2c2cn(CCCOc3cccnc3)nc12` [Example 9], the EC50 in experiment [1] was 0.57 µM; in experiment [2] it was more than 100 µM; in experiment [3] it was more than 100 µM.
Take `CCOCCn1cc2c(n1)c(N)nc1cc(-n3cccn3)ccc12` [Example 10, 2-(2-ethoxyethyl)-7-(1H-pyrazol-1-yl)-2H-pyrazolo[3,4-c]quinolin-4-amine]: the EC50 in experiment [1] is 1 µM; in experiment [2] it was 20 to 100 µM; in experiment [3], 1 to 20 µM.
For `Nc1nc2cc(-n3cccn3)ccc2c2cn(CCN3CCCC3=O)nc12` [Example 11], in that order: 2.09 µM, 20 to 100 µM and more than 100 µM.
Turning to `Cc1cc(C)n(CCn2cc3c(n2)c(N)nc2cc(-n4cccn4)ccc23)n1` [Example 12], the EC50 is 1.52 µM in experiment [1], 20 to 100 µM in experiment [2] and 20 to 100 µM in experiment [3].
In the case of `Nc1nc2cc(-n3cccn3)ccc2c2cn(CCN3CCOCC3)nc12` [Example 13], the values for the EC50 in experiment [1], in experiment [2] and in experiment [3] were 1.78 µM, 20 to 100 µM and more than 100 µM, respectively.
The like results for `Nc1nc2cc(-n3cccn3)ccc2c2cn(Cc3ccccn3)nc12` [Example 14] were, in that order, 1.68 µM, 20 to 100 µM and 20 to 100 µM.
The like results for `COCCOCCn1cc2c(n1)c(N)nc1cc(-n3cccn3)ccc12` [Example 15] were, in that order, 1.81 µM, 20 to 100 µM and more than 100 µM.
For `Nc1nc2cc(-n3cccn3)ccc2c2cn(C[C@H]3CCC(=O)N3)nc12` [Example 16], in that order: 11.3 µM, 20 to 100 µM and more than 100 µM.
As for `Nc1nc2cc(-n3cccn3)ccc2c2cn(CC3CCCO3)nc12` (stereo not drawn) [Example 17], the EC50 was 2.2 µM in experiment [1], 20 to 100 µM in experiment [2] and more than 100 µM in experiment [3].
For `Nc1nc2cc(-n3cccn3)ccc2c2cn(CC3CCCCO3)nc12` (stereo not drawn) [Example 18], in that order: 1.13 µM, 20 to 100 µM and more than 100 µM.
On to `CCNC(=O)Cn1cc2c(n1)c(N)nc1cc(-n3cccn3)ccc12` [Example 19], for which the EC50 in experiment [1] was 3.88 µM; in experiment [2] it was 20 to 100 µM; in experiment [3], 20 to 100 µM.
